Measurements taken from PubChem BioAssay (NCI).
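Exposure lasted 48 hours, with cells grown in 96-well plates and compounds tested at five concentrations. TGI: concentration producing complete growth inhibition.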

Key:
Assay in all cases: NCI tumour cell line growth inhibition, 48 h
MDA-N = test system: MDA-N
RXF-631 renal = test system: RXF-631 renal
LXFL 529 NSCLC = test system: LXFL 529 NSCLC
XF 498 CNS = test system: XF 498 CNS
P388 leukemia = test system: P388 leukemia
SN12K1 renal = test system: SN12K1 renal
P388/ADR leukemia = test system: P388/ADR leukemia

Row | SMILES | TGI (MDA-N) | TGI (LXFL 529 NSCLC) | TGI (XF 498 CNS) | other results
1 | O=c1cc(O)c2ccccc2o1 | > 100 µM |  |  | 
2 | CCOC(=O)NC | > 100 µM |  |  | 
3 | CC1(O)CC23CC1CCC2(C)C12CCCC(C)(C(=O)O1)C2CC3O (centres undefined) | > 100 µM |  |  | 
4 | COc1cc(O)c2c(c1)C(=O)c1cc(C)cc(O)c1C2=O |  | > 100 µM |  | TGI (RXF-631 renal): > 100 µM
5 | O=C1c2ccccc2C(=O)c2c1ccc(C(=O)O)c2-c1ccc2ccccc2c1 | 79.2 µM |  |  | 
6 | Cc1cc(=O)oc2c1cc(OCC(=O)OCCN1CCCCC1)c1occ(C)c12 |  | > 100 µM | > 100 µM | 
7 | Nc1nnc(N)n1NC(=O)C(=O)Nc1ccc([N+](=O)[O-])cc1 |  |  | > 100 µM | TGI (RXF-631 renal): > 100 µM
8 | COc1cc(C)c2c(=O)c3c(oc2c1)C(=O)c1c(O)c(OC)cc(O)c1C3=O |  |  | 2.29 µM | TGI (P388 leukemia): > 50 µM; TGI (SN12K1 renal): 2.69 µM; TGI (P388/ADR leukemia): > 50 µM
9 | O=C(O)C1=NNC(C(=O)O)=NN1 |  | > 100 µM |  | 
10 | NC(=O)Nc1cc(O)ccc1N=Nc1ccc(S(=O)(=O)Nc2ccccn2)cc1 |  | > 100 µM | > 100 µM | 
11 | COc1c(Cl)cc(S(=O)O)cc1Cl |  | > 100 µM | > 100 µM | 
